Source: patent US20130324606A1, “Ester Derivatives of Bimatoprost Compositions and Methods” (ALLERGAN, INC., priority 2011, published 2013)

Legend:
[1] = tested on: C57Black/6J mice; assay: Piliation (hair regrowth) studies in mice; type: in vivo; settings: mouse hair regrowth
Experimental: C57Black/6J, 7-week old female mice (n=10) were employed in piliation studies. Dorsal hair was shaved (area ˜2 cm×4 cm). Dosing of active agent was once per day (QD) by topical administration for 14 days. Observations were conducted for 42-days to determine onset of new hair growth and day of hair growth completion. Compounds were formulated as either a) 50% propylene glycol, 30% ethanol, 20% water, or b) the formulation of Formulation A described above. The experiments reported for FIGS. 4A-4B, 5A-5B, 6A-6B, 8A-8B, and 9A-9B were conducted using a vehicle with formulation of 50% propylene glycol, 30% ethanol, 20% water. The experiments reported for FIGS. 7A-7B were conducted using a vehicle of Formulation A described above.
For each of FIGS. 4A, 5A, 6A, 7A, 8A and 9A, the histograms depict the day of onset of hair growth. For each of FIGS. 4B, 5B, 6B, 7B, 8B and 9B, the histograms depict the day achieving full hair growth.

[2] = Pharmacokinetic assessment of mouse hair regrowth model; type: in vivo; settings: mice, 0.03% dermal daily ~60 uL, all measured time points, LC/MS-MS
Experimental: Female C57BL/6J mice (n=2) were assayed per time point per treatment group. Treatment groups: (1) vehicle; (2) 0.03% Cmpd IVa; (3) 0.03% Cmpd IIIb; (4) 0.03% Cmpd IVb; (5) 0.03% bimatoprost. Treatment dosing: dermal daily application of ˜60 uL test compound solution. Blood and skin pharmacokinetic time points were obtained at day 1 (1, 4, 8 and 24-hrs post-dose); day 2 (24-hrs post-dose); day 14 (24-hrs post-dose); and day 42 (28 days post day 14 dose). Bioanalysis employed LC/MS-MS.

level in the systemic circulation [2]: most undetectable
SMILES: CCNC(=O)CCC/C=C\C[C@@H]1[C@@H](/C=C/[C@H](CCc2ccccc2)OC(C)=O)[C@H](O)C[C@@H]1O [Cmpd IVa, 15-acetyl-bimatoprost]
effectiveness of 0.03% compound compared to 0.1% to 0.3% bimatoprost [1]: approximately equally effective
pharmacological efficacy relative to bimatoprost ([1]; vehicle 50% propylene glycol, 30% ethanol, 20% water): efficacy greater than bimatoprost
pharmacological efficacy relative to bimatoprost ([1]; vehicle Formulation A): efficacy greater than bimatoprost
